Experiments:
BAF3-KIF5B-RET cells = target: T1, BAF3-KIF5B-RET cells (Homo sapiens, UniProt P07949); assay: BAF3-KIF5B-RET Cell proliferation assay (CellTiter-Glo, 72 hours); type: cell-based; details: growth inhibition, read-out: BA/F3-KIF5B-RET Cellular activity
T1 construct: fused on or other part: P33176 (Kinesin-1 heavy chain)
Summary of the method: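 Cells seeded at 2,000/well in RPMI-1640 with 10% FBS and left 24 h at 37 °C, then exposed 72 h to nine compound levels (final 1 μM down to 0.00015 μM, 0.1% DMSO). CellTiter-Glo luminescence gave viability versus DMSO wells, from which IC50 was fitted.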

human KDR kinase = target: T2, human KDR kinase (Homo sapiens, UniProt P35968); assay: KDR Kinase Assay (LanthaScreen TR-FRET enzymatic assay); type: biochemical; details: 1.2 nM KDR, 92 μM ATP
T2 construct: purchased Carna 08-191
Summary of the method: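 Recombinant human KDR (1.2 nM) preincubated 15 min at room temperature with compound, then reacted with 3 μM FAM-P22 peptide and 92 μM ATP in 50 mM HEPES pH 7.5 for 1 h at 28° C. EDTA stop, then TR-FRET acceptor/donor ratio read; percent of 1% DMSO control fitted sigmoidally for IC50.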

human RET kinase = target: T3, human RET kinase (Homo sapiens, UniProt P07949); assay: RET Kinase Assay (LanthaScreen TR-FRET enzymatic assay); type: biochemical; details: 7 nM RET, 23 μM ATP
T3 construct: purchased Carna 08-159
Summary of the method: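 Human RET (7 nM) preincubated 15 min with compound in 50 mM HEPES pH 7.5, 0.0015% Brij-35, then reacted with 3 μM FAM-P2 peptide and 23 μM ATP for 1 h at 28° C.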

T1 sequence (P07949 whole entry, change not shown, the tested form may be a part): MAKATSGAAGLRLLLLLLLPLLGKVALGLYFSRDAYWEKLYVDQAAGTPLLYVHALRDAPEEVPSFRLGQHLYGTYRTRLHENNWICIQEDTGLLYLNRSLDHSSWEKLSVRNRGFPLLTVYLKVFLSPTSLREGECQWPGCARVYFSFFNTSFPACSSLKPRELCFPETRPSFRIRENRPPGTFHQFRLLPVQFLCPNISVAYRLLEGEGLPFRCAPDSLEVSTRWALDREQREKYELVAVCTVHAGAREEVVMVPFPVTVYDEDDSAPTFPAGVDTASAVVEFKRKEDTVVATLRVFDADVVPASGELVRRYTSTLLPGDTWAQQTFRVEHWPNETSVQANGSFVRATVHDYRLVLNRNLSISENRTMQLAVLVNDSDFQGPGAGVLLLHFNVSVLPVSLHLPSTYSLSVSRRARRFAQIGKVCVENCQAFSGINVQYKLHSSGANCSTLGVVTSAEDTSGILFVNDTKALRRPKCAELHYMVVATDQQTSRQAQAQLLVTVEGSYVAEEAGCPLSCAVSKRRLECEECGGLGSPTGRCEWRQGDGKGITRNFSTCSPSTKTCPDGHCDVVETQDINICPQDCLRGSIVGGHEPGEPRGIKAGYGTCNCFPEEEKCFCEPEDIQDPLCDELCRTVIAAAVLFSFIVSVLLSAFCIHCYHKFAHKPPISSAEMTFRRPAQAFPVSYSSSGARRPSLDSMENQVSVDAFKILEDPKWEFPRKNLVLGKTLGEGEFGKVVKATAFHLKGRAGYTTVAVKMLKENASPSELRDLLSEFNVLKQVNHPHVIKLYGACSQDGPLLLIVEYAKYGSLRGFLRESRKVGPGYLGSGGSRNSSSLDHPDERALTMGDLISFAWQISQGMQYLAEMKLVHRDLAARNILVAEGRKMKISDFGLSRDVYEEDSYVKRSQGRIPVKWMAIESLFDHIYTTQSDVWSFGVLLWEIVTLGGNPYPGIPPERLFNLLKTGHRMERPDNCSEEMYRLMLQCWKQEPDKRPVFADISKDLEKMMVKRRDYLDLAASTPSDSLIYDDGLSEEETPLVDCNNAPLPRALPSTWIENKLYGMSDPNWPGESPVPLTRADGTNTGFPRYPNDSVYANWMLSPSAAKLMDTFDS
T3 sequence (P07949 29-1114): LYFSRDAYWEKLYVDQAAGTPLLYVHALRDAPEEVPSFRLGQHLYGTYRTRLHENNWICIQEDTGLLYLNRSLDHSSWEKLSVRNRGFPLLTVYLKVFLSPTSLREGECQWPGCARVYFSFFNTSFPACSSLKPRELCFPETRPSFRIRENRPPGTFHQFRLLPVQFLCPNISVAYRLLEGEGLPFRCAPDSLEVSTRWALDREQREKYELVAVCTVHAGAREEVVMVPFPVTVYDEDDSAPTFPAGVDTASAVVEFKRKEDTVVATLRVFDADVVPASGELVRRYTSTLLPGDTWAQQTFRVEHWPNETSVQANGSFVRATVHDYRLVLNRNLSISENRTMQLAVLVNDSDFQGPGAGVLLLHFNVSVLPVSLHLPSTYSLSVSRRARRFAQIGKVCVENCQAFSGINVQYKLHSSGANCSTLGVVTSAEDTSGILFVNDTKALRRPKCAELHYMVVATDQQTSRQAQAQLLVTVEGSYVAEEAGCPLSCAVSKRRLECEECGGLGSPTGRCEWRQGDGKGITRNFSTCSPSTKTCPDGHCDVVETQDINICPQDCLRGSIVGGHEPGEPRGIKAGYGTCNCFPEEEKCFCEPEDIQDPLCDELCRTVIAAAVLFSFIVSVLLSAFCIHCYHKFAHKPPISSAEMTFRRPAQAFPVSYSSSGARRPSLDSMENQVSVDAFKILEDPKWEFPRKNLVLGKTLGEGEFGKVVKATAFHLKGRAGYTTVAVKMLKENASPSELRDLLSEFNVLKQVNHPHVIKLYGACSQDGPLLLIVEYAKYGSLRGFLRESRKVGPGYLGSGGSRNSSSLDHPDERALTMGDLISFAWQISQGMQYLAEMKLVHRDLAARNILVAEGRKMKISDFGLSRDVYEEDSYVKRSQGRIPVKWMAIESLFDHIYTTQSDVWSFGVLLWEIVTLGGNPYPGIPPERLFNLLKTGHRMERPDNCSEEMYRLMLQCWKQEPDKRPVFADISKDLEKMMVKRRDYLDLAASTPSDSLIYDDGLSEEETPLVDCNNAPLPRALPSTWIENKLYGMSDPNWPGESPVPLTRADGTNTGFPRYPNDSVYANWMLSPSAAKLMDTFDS
T2 sequence (P35968 20-1356): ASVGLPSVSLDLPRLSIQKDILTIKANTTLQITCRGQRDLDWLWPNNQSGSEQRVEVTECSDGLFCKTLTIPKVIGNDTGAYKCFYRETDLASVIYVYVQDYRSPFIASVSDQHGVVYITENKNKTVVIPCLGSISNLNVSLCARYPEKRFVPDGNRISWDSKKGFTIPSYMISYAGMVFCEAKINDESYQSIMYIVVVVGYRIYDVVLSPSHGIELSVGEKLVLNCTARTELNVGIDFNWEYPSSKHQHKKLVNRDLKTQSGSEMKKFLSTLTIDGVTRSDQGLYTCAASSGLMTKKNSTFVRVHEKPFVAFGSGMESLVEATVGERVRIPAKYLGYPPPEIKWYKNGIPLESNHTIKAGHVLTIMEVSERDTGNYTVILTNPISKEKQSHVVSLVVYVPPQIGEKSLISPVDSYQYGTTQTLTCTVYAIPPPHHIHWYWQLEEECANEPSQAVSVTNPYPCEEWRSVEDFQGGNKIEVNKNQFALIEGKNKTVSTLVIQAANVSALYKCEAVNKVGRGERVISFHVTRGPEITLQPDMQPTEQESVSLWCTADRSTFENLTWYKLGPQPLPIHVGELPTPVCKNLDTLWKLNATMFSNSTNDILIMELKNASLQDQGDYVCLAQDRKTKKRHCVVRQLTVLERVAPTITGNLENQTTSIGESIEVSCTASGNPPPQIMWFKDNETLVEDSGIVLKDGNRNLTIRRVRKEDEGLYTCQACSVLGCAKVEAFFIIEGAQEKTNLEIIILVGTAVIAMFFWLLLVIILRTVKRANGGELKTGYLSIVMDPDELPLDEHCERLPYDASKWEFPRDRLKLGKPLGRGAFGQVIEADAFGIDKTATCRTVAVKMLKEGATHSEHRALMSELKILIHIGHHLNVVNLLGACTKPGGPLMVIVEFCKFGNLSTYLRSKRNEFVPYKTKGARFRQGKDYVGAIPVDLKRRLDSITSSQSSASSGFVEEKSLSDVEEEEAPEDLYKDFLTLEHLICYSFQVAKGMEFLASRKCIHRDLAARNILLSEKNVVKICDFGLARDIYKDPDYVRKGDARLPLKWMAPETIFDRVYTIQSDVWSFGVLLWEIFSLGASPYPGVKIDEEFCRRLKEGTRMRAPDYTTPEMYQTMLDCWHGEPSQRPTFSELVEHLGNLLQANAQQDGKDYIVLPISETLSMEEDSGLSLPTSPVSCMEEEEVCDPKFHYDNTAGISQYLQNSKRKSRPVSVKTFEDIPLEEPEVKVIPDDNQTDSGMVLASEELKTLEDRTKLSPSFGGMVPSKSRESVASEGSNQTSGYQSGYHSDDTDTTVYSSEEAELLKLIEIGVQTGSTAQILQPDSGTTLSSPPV

Compound: Cn1cc(-c2cc(-c3cnc(N4C[C@@H]5[C@@H](CNC(=O)c6ncccc6Cl)[C@@H]5C4)cn3)c3c(C#N)cnn3c2)cn1 [Example 153, 3-chloro-N-(((1R,5S,6s)-3-(5-(3-cyano-6-(1-methyl-1H-pyrazol-4-yl)pyrazolo[1,5-a]pyridin-4-yl)pyrazin-2-yl)-3-azabicyclo[3.1.0]hexan-6-yl)methyl)picolinamide]
- GI50 (BAF3-KIF5B-RET cells): ≤ 10 nM
- IC50 (human KDR kinase): 10 to 50 nM
- IC50 (human RET kinase): ≤ 10 nM

Compound: CC(C)(O)COc1cc(-c2cnc(N3C[C@@H]4C[C@@](C)(NC(=O)c5ncccc5Cl)C[C@@H]4C3)cn2)c2c(C#N)cnn2c1 [Example 143, 3-chloro-N-((3aR,5s,6aS)-2-(5-(3-cyano-6-(2-hydroxy-2-methylpropoxy)pyrazolo[1,5-a]pyridin-4-yl)pyrazin-2-yl)-5-methyloctahydrocyclopenta[c]pyrrol-5-yl)picolinamide]
- GI50 (BAF3-KIF5B-RET cells): 10 to 50 nM
- IC50 (human KDR kinase): > 100 nM
- IC50 (human RET kinase): ≤ 10 nM

Compound: COc1ccc(CNC(=O)[C@H]2[C@@H]3CN(c4ccc(-c5cc(OCC(C)(C)O)cn6ncc(C#N)c56)cn4)C[C@@H]32)cn1 [Example 119, (1R,5S,6r)-3-(5-(3-cyano-6-(2-hydroxy-2-methylpropoxy)pyrazolo[1,5-a]pyridin-4-yl)pyridin-2-yl)-N-((6-methoxypyridin-3-yl)methyl)-3-azabicyclo[3.1.0]hexane-6-carboxamide]
- GI50 (BAF3-KIF5B-RET cells): 50 to 100 nM
- IC50 (human RET kinase): ≤ 10 nM

Compound: Cn1cc(-c2cc(-c3cnc(N4C5CC6CC4CC(O)(C6)C5)cn3)c3c(C#N)cnn3c2)cn1 [Example 104, 4-(5-((1R,3S,5s,7s)-5-hydroxy-2-azaadamantan-2-yl)pyrazin-2-yl)-6-(1-methyl-1H-pyrazol-4-yl)pyrazolo[1,5-a]pyridine-3-carbonitrile]
- GI50 (BAF3-KIF5B-RET cells): 10 to 50 nM
- IC50 (human RET kinase): ≤ 10 nM

Compound: COc1ccc(C(=O)NC[C@@H]2[C@H]3CN(c4cnc(-c5cc(OCC(C)(C)O)cn6ncc(C#N)c56)cn4)C[C@@H]23)cn1 [Example 155, N-(((1R,5S,6s)-3-(5-(3-cyano-6-(2-hydroxy-2-methylpropoxy)pyrazolo[1,5-a]pyridin-4-yl)pyrazin-2-yl)-3-azabicyclo[3.1.0]hexan-6-yl)methyl)-6-methoxynicotinamide]
- GI50 (BAF3-KIF5B-RET cells): > 100 nM
- IC50 (human RET kinase): 50 to 100 nM

Compound: Cn1cc(-c2cc(-c3cnc(N4C5CC6CC4CC(NC(=O)OC(C)(C)C)(C6)C5)cn3)c3c(C#N)cnn3c2)cn1 [Example 109, tert-butyl ((1R,3S,5s,7s)-2-(5-(3-cyano-6-(1-methyl-1H-pyrazol-4-yl)pyrazolo[1,5-a]pyridin-4-yl)pyrazin-2-yl)-2-azaadamantan-5-yl)carbamate]
- GI50 (BAF3-KIF5B-RET cells): ≤ 10 nM
- IC50 (human RET kinase): ≤ 10 nM

Compound: COc1ccc(C(=O)N[C@@]2(C)C[C@H]3CN(c4ccc(-c5cc(OCC(C)(C)O)cn6ncc(C#N)c56)cn4)C[C@H]3C2)cn1 [Example 172, N-((3aR,5r,6aS)-2-(5-(3-cyano-6-(2-hydroxy-2-methylpropoxy)pyrazolo[1,5-a]pyridin-4-yl)pyridin-2-yl)-5-methyloctahydrocyclopenta[c]pyrrol-5-yl)-6-methoxynicotinamide]
- GI50 (BAF3-KIF5B-RET cells): > 100 nM
- IC50 (human RET kinase): 10 to 50 nM

Compound: CCOc1cc(-c2cnc(N3C4CC5CC3CC(N)(C5)C4)cn2)c2c(C#N)cnn2c1 [Example 163, 4-(5-((1R,3S,5s,7s)-5-amino-2-azaadamantan-2-yl)pyrazin-2-yl)-6-ethoxypyrazolo[1,5-a]pyridine-3-carbonitrile]
- GI50 (BAF3-KIF5B-RET cells): > 100 nM
- IC50 (human RET kinase): 10 to 50 nM

Compound: COc1ccc(C(C)N2C[C@H]3CN(c4cnc(-c5cc(OCC(C)(C)O)cn6ncc(C#N)c56)cn4)C[C@H]3C2)cn1 (stereo partly drawn) [Example 176, 6-(2-hydroxy-2-methylpropoxy)-4-(5-((3aR,6aS)-5-(1-(6-methoxypyridin-3-yl)ethyl)hexahydropyrrolo[3,4-c]pyrrol-2(1H)-yl)pyrazin-2-yl)pyrazolo[1,5-a]pyridine-3-carbonitrile]
- GI50 (BAF3-KIF5B-RET cells): > 100 nM
- IC50 (human RET kinase): 50 to 100 nM

Compound: COc1cncc(C(=O)NC[C@@H]2[C@H]3CN(c4ccc(-c5cc(-c6cnn(C)c6)cn6ncc(C#N)c56)cn4)C[C@@H]23)c1 [Example 192, N-(((1R,5S,6s)-3-(5-(3-cyano-6-(1-methyl-1H-pyrazol-4-yl)pyrazolo[1,5-a]pyridin-4-yl)pyridin-2-yl)-3-azabicyclo[3.1.0]hexan-6-yl)methyl)-5-methoxynicotinainide]
- GI50 (BAF3-KIF5B-RET cells): 10 to 50 nM
- IC50 (human RET kinase): ≤ 10 nM

Compound: CC(C)(O)COc1cc(-c2cnc(N3C4CC5CC3CC(N)(C5)C4)cn2)c2c(C#N)cnn2c1 [Example 162, 4-(5-((1R,3S,5s,7s)-5-amino-2-azaadamantan-2-yl)pyrazin-2-yl)-6-(2-hydroxy-2-methylpropoxy)pyrazolo[1,5-a]pyridine-3-carbonitrile]
- GI50 (BAF3-KIF5B-RET cells): > 100 nM
- IC50 (human RET kinase): 10 to 50 nM

Compound: CC(C)(O)COc1cc(-c2cnc(N3C4CC5CC3CC(NC(=O)c3ncccc3Cl)(C5)C4)cn2)c2c(C#N)cnn2c1 [Example 164, 3-chloro-N-((1R,3S,5s,7s)-2-(5-(3-cyano-6-(2-hydroxy-2-methylpropoxy)pyrazolo[1,5-a]pyridin-4-yl)pyrazin-2-yl)-2-azaadamantan-5-yl)picolinamide]
- GI50 (BAF3-KIF5B-RET cells): ≤ 10 nM
- IC50 (human RET kinase): ≤ 10 nM

Compound: COc1cccc(C(=O)NC[C@@H]2[C@H]3CN(c4ccc(-c5cc(-c6cnn(C)c6)cn6ncc(C#N)c56)cn4)C[C@@H]23)n1 [Example 195, N-(((1R,5S,6s)-3-(5-(3-cyano-6-(1-methyl-1H-pyrazol-4-yl)pyrazolo[1,5-a]pyridin-4-yl)pyridin-2-yl)-3-azabicyclo[3.1.0]hexan-6-yl)methyl)-6-methoxypicolinamide]
- GI50 (BAF3-KIF5B-RET cells): ≤ 10 nM
- IC50 (human RET kinase): ≤ 10 nM

Compound: CC(C)(O)COc1cc(-c2cnc(N3C4CC5CC3CC(O)(C5)C4)cn2)c2c(C#N)cnn2c1 [Example 157, 4-(5-((1R,3S,5s,7s)-5-hydroxy-2-azaadamantan-2-yl)pyrazin-2-yl)-6-(2-hydroxy-2-methylpropoxy)pyrazolo[1,5-a]pyridine-3-carbonitrile]
- GI50 (BAF3-KIF5B-RET cells): > 100 nM
- IC50 (human RET kinase): 10 to 50 nM

Compound: Cn1cc(-c2cc(-c3cnc(N4C5CC6CC4CC(NC=O)(C6)C5)cn3)c3c(C#N)cnn3c2)cn1 [Example 107, N-((1R,3S,5s,7s)-2-(5-(3-cyano-6-(1-methyl-1H-pyrazol-4-yl)pyrazolo[1,5-a]pyridin-4-yl)pyrazin-2-yl)-2-azaadamantan-5-yl)formamide]
- GI50 (BAF3-KIF5B-RET cells): 10 to 50 nM
- IC50 (human RET kinase): ≤ 10 nM

Compound: Cn1cc(-c2cc(-c3ccc(N4C[C@@H]5C[C@@](O)(Cc6ccccn6)C[C@@H]5C4)nc3)c3c(C#N)cnn3c2)cn1 [Example 158, 4-(6-((3aR,5r,6aS)-5-hydroxy-5-(pyridin-2-ylmethyl)hexahydrocyclopenta[c]pyrrol-2(1H)-yl)pyridin-3-yl)-6-(1-methyl-1H-pyrazol-4-yl)pyrazolo[1,5-a]pyridine-3-carbonitrile]
- GI50 (BAF3-KIF5B-RET cells): 10 to 50 nM
- IC50 (human RET kinase): ≤ 10 nM

Compound: COc1ccnc(C(=O)NC[C@@H]2[C@H]3CN(c4ccc(-c5cc(-c6cnn(C)c6)cn6ncc(C#N)c56)cn4)C[C@@H]23)c1 [Example 193, N-(((1R,5S,6s)-3-(5-(3-cyano-6-(1-methyl-1H-pyrazol-4-yl)pyrazolo[1,5-a]pyridin-4-yl)pyridin-2-yl)-3-azabicyclo[3.1.0]hexan-6-yl)methyl)-4-methoxypicolinamide]
- GI50 (BAF3-KIF5B-RET cells): ≤ 10 nM
- IC50 (human RET kinase): ≤ 10 nM

Compound: COc1ccc(C(=O)NC23CC4CC(C2)N(c2cnc(-c5cc(OCC(C)(C)O)cn6ncc(C#N)c56)cn2)C(C4)C3)cn1 [Example 166, N-((1R,3S,5s,7s)-2-(5-(3-cyano-6-(2-hydroxy-2-methylpropoxy)pyrazolo[1,5-a]pyridin-4-yl)pyrazin-2-yl)-2-azaadamantan-5-yl)-6-methoxynicotinamide]
- GI50 (BAF3-KIF5B-RET cells): 10 to 50 nM
- IC50 (human RET kinase): ≤ 10 nM

Compound: COc1ccc(CN2[C@@H]3CC[C@H]2[C@H]2CN(c4ccc(-c5cc(OCC(C)(C)O)cn6ncc(C#N)c56)cn4)C[C@H]23)cn1 [Example 117, 6-(2-hydroxy-2-methylpropoxy)-4-(6-((3aR,4S,7R,7aS)-8-((6-methoxypyridin-3-yl)methyl)hexahydro-1H-4,7-epiminoisoindol-2(3H)-yl)pyridin-3-yl)pyrazolo[1,5-a]pyridine-3-carbonitrile]
- GI50 (BAF3-KIF5B-RET cells): > 100 nM
- IC50 (human RET kinase): 10 to 50 nM

Compound: COc1ccc(C(=O)NC[C@@H]2[C@H]3CN(c4cnc(-c5cc(-c6cnn(C)c6)cn6ncc(C#N)c56)cn4)C[C@@H]23)cn1 [Example 156, N-(((1R,5S,6s)-3-(5-(3-cyano-6-(1-methyl-1H-pyrazol-4-yl)pyrazolo[1,5-a]pyridin-4-yl)pyrazin-2-yl)-3-azabicyclo[3.1.0]hexan-6-yl)methyl)-6-methoxynicotinamide]
- GI50 (BAF3-KIF5B-RET cells): 10 to 50 nM
- IC50 (human RET kinase): ≤ 10 nM

Compound: COc1ccc(C(=O)N[C@@H]2C[C@@H]3CN(c4cnc(-c5cc(OCC(C)(C)O)cn6ncc(C#N)c56)cn4)C[C@@H]3C2)cn1 [Example 110, N-((3aR,5r,6aS)-2-(5-(3-cyano-6-(2-hydroxy-2-methylpropoxy)pyrazolo[1,5-a]pyridin-4-yl)pyrazin-2-yl)octahydrocyclopenta[c]pyrrol-5-yl)-6-methoxynicotinamide]
- GI50 (BAF3-KIF5B-RET cells): > 100 nM
- IC50 (human RET kinase): 50 to 100 nM

Compound: CCOc1cc(-c2cnc(N3C4CC5CC3CC(NC=O)(C5)C4)cn2)c2c(C#N)cnn2c1 [Example 161, N-((1R,3S,5s,7s)-2-(5-(3-cyano-6-ethoxypyrazolo[1,5-a]pyridin-4-yl)pyrazin-2-yl)-2-azaadamantan-5-yl)formamide]
- GI50 (BAF3-KIF5B-RET cells): > 100 nM
- IC50 (human RET kinase): ≤ 10 nM

— US20220220128A1, “HETEROCYCLIC COMPOUNDS AS KINASE INHIBITORS, COMPOSITIONS COMPRISING THE HETEROCYCLIC COMPOUND, AND METHODS OF USE THEREOF” (JS Innopharm (Shanghai) Ltd, priority 2019, published 2022)
